Test system: L929 cell-embedded collagen gel (cultured dermis model)
Assay: Titer evaluation using cultured dermis model (quantification of DNA)
Format: cell-based
Procedure: Ultrapure water was added to a collagen made of pig skin (manufactured by NH Foods Ltd.), and the obtained mixture was stirred overnight at 4° C. to prepare a 1% collagen solution. A L929 cell suspension (obtained by collecting cultured L929 cells and suspending the collected L929 cells in a culture medium) (6×10^5 cells) was centrifuged at 1000 rpm for 3 minutes, and the supernatant was removed by suction. A 20% fetal bovine serum (Fetal Bovine Serum, manufactured by FBS bio sera) was added to a Dulbecco's Modified Eagle Medium (DMEM) (manufactured by Thermo Fisher Scientific Inc.) prepared at a concentration of twice to prepare a 2-fold concentrated DMEM culture medium. L929 cells were suspended in a solution in which the 1% collagen solution and the 2-fold concentrated DMEM culture medium were mixed at a ratio of 1:1. This suspension was added to a 12-well plate at 1 ml/well, and was left to stand in an incubator for 1 hour to allow the suspension to turn into a gel.
A ring made of polycarbonate (outer diameter: 1.4 cm, inner diameter: 1.2 cm, and height: 0.3 cm) was placed on a L929 cell-embedded collagen gel (cultured dermis model) prepared in Synthesis Example 1. 200 μl of the bFGF-containing G/O emulsion described above was added to the inside the ring. 200 μl of DMEM culture medium was added to the outside of the ring, and the gel was placed in an incubator. The culture medium was changed every day, and the amounts of DNA in the L929 cell-embedded collagen gel after 1 day, 3 days, and 5 days were quantified. The quantification of DNA was performed as follows.
A liquid in which 1 ml of 0.25% collagenase solution (manufactured by Wako Pure Chemical Industries, Ltd.) was added to a L929 cell-embedded collagen gel was referred to as liquid E. A liquid in which a gel was dissolved by shaking the gel at 37° C. for around 1 hour was referred to as liquid F. Each sample was centrifuged at 1000 rpm for 3 minutes, and the supernatant was removed by suction. Triton X-100 (manufactured by Sigma) was added to the above-described PBS to prepare 0.1% Triton X-100-containing PBS, and the sample was suspended in 1 ml of the 0.1% Triton X-100-containing PBS. The obtained suspension was frozen at −80° C., and then thawed at room temperature. This operation was repeated 3 times. 180 μl of Hoechst (Hoechst (registered trademark), manufactured by Thermo Fisher Scientific K.K.) was mixed with 20 μl of sample, and the obtained mixture was added in a 96-well black plate. By using Fluorescent DNA Quantitation Kit Cat. #170-2480 (BIO-RAD), the quantification of DNA was performed with fluorescent brightness measurement under the conditions of an excitation filter of 355 nm and an absorption filter of 460 nm. The fluorescent brightness was measured 3 times, and the average was taken to obtain the amount of DNA. The quantification of DNA was performed before the start of the test (0 day), and 1 day, 3 days, 5 days, and 7 days after the start of the test.

Substance: Comparative Example 3: bFGF (basic fibroblast growth factor) used as it was
- Amount of DNA (0 Day (before the start of the test)): 43 ng
- Amount of DNA (After 1 day, 200 μl sample): 74 ng
- Amount of DNA (After 3 days, 200 μl sample): 145 ng
- Amount of DNA (After 5 days, 200 μl sample): 187 ng
- Amount of DNA (After 7 days, 200 μl sample): 192 ng
